Experimental data taken from patent publication US20240238367A1, “COMPOUNDS FOR TREATING CONDITIONS RELATED TO PCSK9 ACTIVITY” (MERCK SHARP & DOHME LLC, priority 2021, published 2024).
Like-named read-outs stand apart in the source and are kept apart here.

Assays:
[1] = tested on: LDL-C; conditions: phase 3 lipid trials, N Engl J Med 2020; cited from earlier work
[2] = tested on: LDL-C; assay: multiple dose study: LDL-C reduction in participants on statin background therapy
Description: (§3) Standard takeaway meals were provided to participants to consume no less than 30 minutes after receiving their once daily dose. In addition to standard safety monitoring, including vital signs, ECG and laboratory safety tests, plasma lipids (total cholesterol, LDL-C, HDL-C and TG) were measured. LDL-C was monitored as part of the safety labs.
Blood LDL-cholesterol levels were measured using standard clinical laboratory testing procedures predose and on day 3, 7, 14, 15 and 21 after dosing.

[3] = single dose study: safety and tolerability
Text: (§1) Evaluation of pharmacokinetics, pharmacodynamics (reduction of free PCSK9 from baseline) and safety and tolerability of single doses of the compound of formula (I) were studied in normal healthy male volunteers aged 18-50. […] Additionally, this trial examined the effect of permeation enhancer dose on PK, the effect of food on PK, and the effect of various capsule formulations on PK. The pharmacodynamic endpoint measured in this study was target engagement (% change in free PCSK9).
(§2) The capsules were over-encapsulated with enteric capsules (HPMC Vcaps® Enteric, Capsugel®, Lonza).

[4] = once daily for 14 days
Description: as §3

[5] = stability of amorphous salt forms, impurity levels (FIG. 5); assay type: physicochemical; conditions: chloride salt made with HCl acidification step, risk of excess HCl
[6] = target: T1, free PCSK9 (Homo sapiens, UniProt Q8NBP7); assay: single dose study: reduction of free plasma PCSK9 from baseline (target engagement); assay type: in vivo
T1 construct: reduction in plasma levels of free PCSK9 protein; from tissue; host or cells: plasma of healthy human volunteers (in vivo, endogenous)
T1 sequence (Q8NBP7 153-692): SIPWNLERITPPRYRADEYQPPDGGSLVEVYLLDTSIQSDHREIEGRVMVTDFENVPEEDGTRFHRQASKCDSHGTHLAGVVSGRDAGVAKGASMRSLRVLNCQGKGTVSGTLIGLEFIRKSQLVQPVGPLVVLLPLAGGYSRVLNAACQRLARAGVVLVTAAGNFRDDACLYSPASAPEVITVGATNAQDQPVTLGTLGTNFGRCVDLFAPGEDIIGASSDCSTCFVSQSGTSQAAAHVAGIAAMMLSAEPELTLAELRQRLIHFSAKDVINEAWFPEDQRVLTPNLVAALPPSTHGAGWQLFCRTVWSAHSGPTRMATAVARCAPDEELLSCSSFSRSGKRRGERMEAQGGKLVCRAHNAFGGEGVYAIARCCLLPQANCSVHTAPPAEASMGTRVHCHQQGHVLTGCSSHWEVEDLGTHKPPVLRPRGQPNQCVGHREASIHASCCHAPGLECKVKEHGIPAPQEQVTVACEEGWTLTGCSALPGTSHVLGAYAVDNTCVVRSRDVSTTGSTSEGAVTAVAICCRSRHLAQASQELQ
T1 sequence (Q8NBP7 31-152 partner limits assumed): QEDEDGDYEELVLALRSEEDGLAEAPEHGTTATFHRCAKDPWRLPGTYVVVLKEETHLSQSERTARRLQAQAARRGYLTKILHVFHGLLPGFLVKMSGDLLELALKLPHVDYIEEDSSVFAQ

[7] = non-human primates; co-administration with permeation enhancer (Labrasol, sodium caprate)
[8] = nonhuman primates; subcutaneous dosing plus oral arms; up to/including highest doses administered
[9] = Text: as §1, §2
[10] = rats; subcutaneous dosing plus oral arms; up to/including highest doses administered
[11] = tested on: LDL-C; conditions: hard gelatin capsule, 5 mg plus 180 mg sodium caprate, participants taking statins
[12] = target: human PCSK9 (Homo sapiens, UniProt Q8NBP7)
Chain of human PCSK9 (Q8NBP7 153-692): as the sequence (Q8NBP7 153-692) above

[13] = rats; co-administration with permeation enhancer (Labrasol, sodium caprate)
[14] = tested on: LDL-C; conditions: ODYSSEY, N Engl J Med 2018; cited from earlier work
[15] = tested on: LDL-C; conditions: FOURIER, N Engl J Med 2017; cited from earlier work
[16] = single oral doses 10 to 300 mg, healthy male volunteers
[17] = Panel A 200 mg no PE (permeation enhancer)
[18] = Panel B 120 mg with 720 mg Labrasol
[19] = Panel C 40 mg with 720 mg Na Caprate
[20] = Panel C 100 mg with 1800 mg Na caprate

Inclisiran
reduction in LDL-C [1]: 49-52%

COc1ccc(C[C@@H]2NC(=O)[C@H]([C@@H](C)O)NC(=O)[C@@H]3[C@@H]4CCN3C(=O)[C@@H]3Cc5cn(c6ccc(F)cc56)CCCCCCN(Cc5ccc(cc5)CCNC(=O)[C@]5(C)CCCN5C2=O)C(=O)CCC(=O)N[C@@H](C)C(=O)N[C@H](CNC(=O)CCCCC[N+](C)(C)C)C(=O)N[C@@H](Cc2cccc(c2)CNC(=O)CO4)C(=O)N3)cc1.[Cl-] [Compound 1]
mean reduction of LDL-C ([2]; 10 mg plus 180 mg sodium caprate, once daily for 14 days, statin background): approximately 60% | mean reduction of LDL-C ([2]; 10 mg plus 360 mg sodium caprate, once daily for 14 days, statin background): approximately 64% | mean reduction of plasma LDL-C ([2]; 20 mg plus 360 mg sodium caprate, once daily for 14 days, statin background): approximately 62% | adverse events related to Compound 1 reported by the Investigator [3, 16]: abdominal discomfort, diarrhea, dyspepsia, headache, and maculopapular rash | deaths or severe adverse events (SAEs) [3, 16]: no death or severe adverse events | tolerability ([3]; single oral doses up to 300 mg, healthy male volunteers): well tolerated | severity of treatment-related AEs ([3]; single oral doses, exception of one participant with severe back pain, not dose-related): mild/moderate | PK of 10 mg plus 180 mg sodium caprate versus 10 mg plus 360 mg sodium caprate [4]: similar | stability / impurity levels of amorphous salt [5]: higher impurity levels | GM Maximum Percent Target Reduction From Baseline of Free PCSK9 ([6]; Panel A 10 mg single dose): 93.32% | Posterior Probability of True GM Free PCSK9 Maximum Percent Reduction ≥80% ([6]; Panel A 10 mg single dose): >0.99 | GM Maximum Percent Target Reduction From Baseline of Free PCSK9 [6, 17]: 96.83% | Posterior Probability of True GM Free PCSK9 Maximum Percent Reduction ≥80% [6, 17]: >0.99 | GM Maximum Percent Target Reduction From Baseline of Free PCSK9 ([6]; Panel A 200 mg single dose): 99.46% | Posterior Probability of True GM Free PCSK9 Maximum Percent Reduction ≥80% ([6]; Panel A 200 mg single dose): >0.99 | GM Maximum Percent Target Reduction From Baseline of Free PCSK9 ([6]; Panel B 35 mg single dose): 98.72% | Posterior Probability of True GM Free PCSK9 Maximum Percent Reduction ≥80% ([6]; Panel B 35 mg single dose): >0.99 | GM Maximum Percent Target Reduction From Baseline of Free PCSK9 [6, 18]: 99.43% | Posterior Probability of True GM Free PCSK9 Maximum Percent Reduction ≥80% [6, 18]: >0.99 | GM Maximum Percent Target Reduction From Baseline of Free PCSK9 ([6]; Panel B 300 mg single dose): 99.68% | Posterior Probability of True GM Free PCSK9 Maximum Percent Reduction ≥80% ([6]; Panel B 300 mg single dose): >0.99 | GM Maximum Percent Target Reduction From Baseline of Free PCSK9 [6, 19]: 97.94% | Posterior Probability of True GM Free PCSK9 Maximum Percent Reduction ≥80% [6, 19]: >0.99 | GM Maximum Percent Target Reduction From Baseline of Free PCSK9 ([6]; Panel C 100 mg single dose): 99.36% | Posterior Probability of True GM Free PCSK9 Maximum Percent Reduction ≥80% ([6]; Panel C 100 mg single dose): >0.99 | GM Maximum Percent Target Reduction From Baseline of Free PCSK9 [6, 20]: 99.18% | Posterior Probability of True GM Free PCSK9 Maximum Percent Reduction ≥80% [6, 20]: >0.99 | GI absorption [7]: improved | adverse effects in GLP toxicity study [8]: no adverse effects were observed | effect of food on plasma exposure ([9]; food consumed 30 minutes after the dose): negligible effect | effect of food on plasma exposure ([9]; food consumed 30 minutes before dosing, compared to fasted): lower plasma exposure | PK in the presence of Labrasol versus sodium caprate ([9]; single dose): similar | effect of permeation enhancers on absorption (Cmax and AUC0-24) ([9]; single dose, with vs without permeation enhancer): improve absorption | plasma exposure versus dose ([9]; single oral doses 10 to 300 mg): dose dependent increase | adverse effects in GLP toxicity study [10]: no adverse effects were observed | % LDL-C reduction from baseline [11]: < 50% | binding affinity against human PCSK9 [12]: picomolar | GI absorption [13]: improved

COc1ccc(C[C@@H]2NC(=O)[C@H]([C@@H](C)O)NC(=O)[C@@H]3[C@@H]4CCN3C(=O)[C@@H]3Cc5cn(c6ccc(F)cc56)CCCCCCN(Cc5ccc(cc5)CCNC(=O)[C@]5(C)CCCN5C2=O)C(=O)CCC(=O)N[C@@H](C)C(=O)N[C@H](CNC(=O)CCCCC[N+](C)(C)C)C(=O)N[C@@H](Cc2cccc(c2)CNC(=O)CO4)C(=O)N3)cc1 [Compound 3]
stability / impurity levels of amorphous salt [5]: demonstrate stability

Praluent: anti-PCSK9 monoclonal antibody
reduction in LDL-C [14]: 59%

COc1ccc(C[C@@H]2NC(=O)[C@H]([C@@H](C)O)NC(=O)[C@@H]3[C@@H]4CCN3C(=O)[C@@H]3Cc5cn(c6ccc(F)cc56)CCCCCCN(Cc5ccc(cc5)CCNC(=O)[C@]5(C)CCCN5C2=O)C(=O)CCC(=O)N[C@@H](C)C(=O)N[C@H](CNC(=O)CCCCC[N+](C)(C)C)C(=O)N[C@@H](Cc2cccc(c2)CNC(=O)CO4)C(=O)N3)cc1 [compound of formula (I)]
lowering of LDL-cholesterol in the blood from baseline ([2]; 14 days of once daily oral dosing, background of moderate-to-high intensity statin therapy): approximately 65% | tolerability ([3]; single and multiple oral doses in healthy volunteers): generally well tolerated | mean maximum reduction of free plasma PCSK9 levels from baseline ([6]; single doses, all dose levels studied): more than 90%

B1: Repatha: anti-PCSK9 monoclonal antibody (antibody, chains of the INN, looked up, V domains shown)
VH: EVQLVQSGAEVKKPGASVKVSCKASGYTLTSYGISWVRQAPGQGLEWMGWVSFYNGNTNYAQKLQGRGTMTTDPSTSTAYMELRSLRSDDTAVYYCARGYGMDVWGQGTTVTVSS
VL: ESALTQPASVSGSPGQSITISCTGTSSDVGGYNSVSWYQQHPGKAPKLMIYEVSNRPSGVSNRFSGSKSGNTASLTISGLQAEDEADYYCNSYTSTSMVFGGGTKLTVL
reduction in LDL-C [15]: 59%
